Measured values from ChEMBL document CHEMBL1134136, “Novel piperidinyloxy oxazolidinone antimicrobial agents” (2001).
Converted amounts (≈) assume the structure as drawn.

Columns and labels:
Type in all cases: functional
Enterococcus faecium [1] = experiment: Antibacterial activity against vancomycin - resistant Enterococcus faecium (OC 3312 VRE)
Enterococcus faecalis = experiment: Antibacterial activity against Enterococcus faecalis (ATCC 29212)
Escherichia coli [2] = experiment: Antibacterial activity against Escherichia coli (OC 2530) (HS)
Escherichia coli [3] = experiment: Antibacterial activity against Escherichia coli (OC 2605)
Staphylococcus aureus [4] = experiment: Antibacterial activity against methicillin susceptible Staphylococcus aureus (OC 4172) in broth (without serum)
Staphylococcus aureus [5] = experiment: Antibacterial activity against methicillin susceptible Staphylococcus aureus (OC 4172) in presence of 50% mouse serum
Staphylococcus aureus [6] = experiment: Antibacterial activity against methicillin - resistant Staphylococcus aureus (MRSA OC2878)
Staphylococcus aureus [7] = experiment: Antibacterial activity towards methicillin - resistant Staphylococcus aureus (MRSA OC2878)
Enterococcus faecium [8] = experiment: Minimum inhibitory concentration against vancomycin - resistant Enterococcus faecium (OC 3312 VRE)

Row | SMILES | MIC (Enterococcus faecium [1]) | MIC (Enterococcus faecalis) | MIC (Escherichia coli [2]) | MIC (Escherichia coli [3]) | MIC (Staphylococcus aureus [4]) | MIC (Staphylococcus aureus [5]) | MIC (Staphylococcus aureus [6]) | MIC (Staphylococcus aureus [7]) | MIC (Enterococcus faecium [8])
1 | CC(=O)NC[C@H]1CN(c2ccc(OC3CCN(C(=O)CO)C3)c(F)c2)C(=O)O1 (stereo partly drawn) | 16 µg/mL (≈ 40.5 µM) | 16 µg/mL (≈ 40.5 µM) | 128 µg/mL (≈ 324 µM) | 128 µg/mL (≈ 324 µM) | 4 µg/mL (≈ 10.1 µM) | 4 µg/mL | 8 µg/mL (≈ 20.2 µM) | – | –
2 | CC(=O)NC[C@H]1CN(c2ccc(OC3CN(C(=O)COCc4ccccc4)C3)c(F)c2)C(=O)O1 | 16 µg/mL (≈ 33.9 µM) | 16 µg/mL (≈ 33.9 µM) | 64 µg/mL (≈ 136 µM) | > 128 µg/mL | 8 µg/mL (≈ 17 µM) | 16 µg/mL | 8 µg/mL (≈ 17 µM) | – | –
3 | CC(=O)NC[C@H]1CN(c2ccc(OC3CN(C(=O)CO)C3)c(F)c2)C(=O)O1 | 16 µg/mL (≈ 42 µM) | 16 µg/mL (≈ 42 µM) | > 128 µg/mL | > 128 µg/mL | 8 µg/mL (≈ 21 µM) | 8 µg/mL | 8 µg/mL (≈ 21 µM) | – | –
4 | CC(=O)NC[C@H]1CN(c2ccc(OC3CCN(C(=O)CO)CC3)cc2)C(=O)O1 | 32 µg/mL (≈ 81.8 µM) | 32 µg/mL (≈ 81.8 µM) | > 128 µg/mL | > 128 µg/mL | 16 µg/mL (≈ 40.9 µM) | 32 µg/mL | 16 µg/mL (≈ 40.9 µM) | – | –
5 | CC(=O)NC[C@H]1CN(c2ccc(OC3CCN(C(=O)COCc4ccccc4)CC3)c(F)c2)C(=O)O1 | 4 µg/mL (≈ 8.01 µM) | 4 µg/mL (≈ 8.01 µM) | > 32 µg/mL | > 128 µg/mL | 4 µg/mL (≈ 8.01 µM) | 16 µg/mL | – | 2 µg/mL (≈ 4 µM) | –
6 | CC(=O)NC[C@H]1CN(c2ccc(OC3CCCN(C(=O)COCc4ccccc4)C3)c(F)c2)C(=O)O1 (stereo partly drawn) | 64 µg/mL (≈ 128 µM) | 64 µg/mL (≈ 128 µM) | > 64 µg/mL | > 128 µg/mL | 32 µg/mL (≈ 64.1 µM) | 32 µg/mL | 32 µg/mL (≈ 64.1 µM) | – | –
7 | CC(=O)NC[C@H]1CN(c2ccc(OC3CCN(C(=O)COCc4ccccc4)CC3)cc2)C(=O)O1 | – | 16 µg/mL (≈ 33.2 µM) | 128 µg/mL (≈ 266 µM) | 128 µg/mL (≈ 266 µM) | 16 µg/mL (≈ 33.2 µM) | 64 µg/mL | 8 µg/mL (≈ 16.6 µM) | – | 16 µg/mL (≈ 33.2 µM)
8 | CC(=O)NC[C@H]1CN(c2ccc(OC3CCN(C(=O)CO)CC3)c(F)c2)C(=O)O1 | 8 µg/mL (≈ 19.5 µM) | 8 µg/mL (≈ 19.5 µM) | 128 µg/mL (≈ 313 µM) | > 128 µg/mL | 4 µg/mL (≈ 9.77 µM) | 4 µg/mL | 4 µg/mL (≈ 9.77 µM) | – | –
9 | CC(=O)NC[C@H]1CN(c2ccc(OC3CCN(C(=O)COCc4ccccc4)C3)c(F)c2)C(=O)O1 (stereo partly drawn) | 16 µg/mL (≈ 33 µM) | 16 µg/mL (≈ 33 µM) | > 128 µg/mL | > 128 µg/mL | 16 µg/mL (≈ 33 µM) | 16 µg/mL | 16 µg/mL (≈ 33 µM) | – | –
10 | CC(=O)NC[C@H]1CN(c2ccc(OC3CCCN(C(=O)CO)C3)c(F)c2)C(=O)O1 (stereo partly drawn) | 16 µg/mL (≈ 39.1 µM) | 16 µg/mL (≈ 39.1 µM) | 128 µg/mL (≈ 313 µM) | > 128 µg/mL | 8 µg/mL (≈ 19.5 µM) | 8 µg/mL | 8 µg/mL (≈ 19.5 µM) | – | –
11 | CC(=O)NC[C@H]1CN(c2ccc(N3CCOCC3)c(F)c2)C(=O)O1 [LINEZOLID] | 2 µg/mL (≈ 5.93 µM) | – | 8 µg/mL (≈ 23.7 µM) | 32 µg/mL (≈ 94.9 µM) | – | – | – | – | –
